Measurements: US6677310B1, “Ring-expanded nucleosides and nucleotides” (Nabi, priority 1999, dated 2004)
≈ marks a conversion by molar mass, not a printed value. Entries after “also recorded” stand apart in the source; their conditions may differ.

Legend:
[1] = molecular target: T1, bacteriophage T7 RNA polymerase (Escherichia phage T7, UniProt P00573); experiment: Transcription catalyzed by T7 RNA polymerase; type: biochemical
T1 construct: purchased Promega P2075
Experimental: To show whether the “fat” nucleotide Compound 15-2 (FNTP) is incorporated into RNA during transcription, experiments were performed using bacteriophage T7 RNA polymerase (RNAP) and a synthetic 42-mer DNA template shown below that is annealed to a 17-nucleotide promoter specific for T7 RNAP. This promoter-template enables the synthesis of 25-mer RNA, and the purine analogue may be incorporated in positions +1, +11, +13, +15, +21, +22, and +23.
Transcription reaction conditions were optimized with the use of ^32P CTP for labeling RNA transcripts. Polyacrylimide gel electrophoresis of the transcription products obtained from the 42-mer template, using 1 mM each of four natural NTPs, reveled a 25-mer RNA as the major product, together with shorter and longer labeled transcripts (FIG. 9, lane 1). The additional bands observed are consistent with the known ability of T7 RNA polymerase to add non-coded residues at the 3′-end of transcripts. (Milligan, J. F., et al., Nuc. Acids Res., 15, 8783-8798, 1987) With the use of 1 mM nucleotide Compound 15-2 (FNTP), the yield of transcription was reduced (lane 2).
With the use of a synthetic 37-mer DNA template, annealed to a 17-nucleotide promoter for T7 RNAP as shown below, a 20 nucleotide-long transcript RNA was obtained when the reaction mixture contained all four NTPs in appropriate concentrations, along with many shorter “abortive” fragments. (Milligan, J. F., et al., Nuc. Acids Res., 15, 8783-8798, 1987). For the reaction with modified nucleotide, typically
the concentration of the appropriate natural nucleotide was reduced. […] (Milligan, J. F., et al., Methods in Enzymol., 180, 51-63, 1989.) In the present experiments, the synthesis of RNA was compared under standard conditions (using 4 NTPs in 0.2 mM concentration each) with the synthesis of RNA by using an additional “fat” nucleoside triphosphate Compound 15-2 (FNTP) in varying (0.05-10 mM) concentrations. The reaction mixtures were incubated at 37° C. for 2 hours, and the products were denatured in a buffer containing urea. The products were separated by 20% polyacrylamide-urea gel electrophoresis and visualized by autoradiography.
Transcription samples (total volume 10 μL contained: 40 mM Tris-HCl pH 8.1 with 6 mM MgCl2, 5 mM dithiothreitol (DTT), 1 mM spermidine, 0.01% Triton-X 100, 50 μg/mL bovine serum albumin, 250 nM synthetic DNA template with a promotor for T7 RNAP, 4 units of T7 RNA polymerase, and 0.2 mM ribonucleoside triphosphates. A single α^32P-labeled NTP was added for labeling (typicallly 1 μL of 10 mCi/mL ). Inhibition assays were monitored with varying concentrations (0.05-10 mM) of nucleotide Compound 15-2. Polyacrylamide gel (20%) electrophoresis was performed on slab gels (18 cm×16 cm, or 35 cm×44 cm) containing 8M urea. […]

[2] = Cell proliferation assay, rapidly growing Daudi cells; type: cell-based; conditions: human; for IC50 at 72 h: rapidly growing Daudi cells, read-out: Cytotoxicity (IC50), Daudi Cells
Experimental: (§1) The toxicity of Compounds 14-1 and 14-2 was also measured in rapidly growing human foreskin fibroblast (HFF) cells and Daudi cells by cell proliferation assay (National Institute of Allergy and Infectious Diseases (NIAID), NIH, Bethesda, Md.). According to the assay method, the appropriate cells were seeded in six-well plates in MEM containing 10% FBS. Twenty four hours later, the cells were treated with several dilutions of the test compounds covering a range of 0.03-100 μg/ml. The plates were incubated in a CO2 incubator at 37° C. for 72h. The cells were washed after removing the media and subsequently released from the plate wells by the addition of 1 ml of 0.25% trypsin. The contents in the wells were mixed, diluted with Isotone III and counted using a Coulter counter. The CC50 values (concentration of compound giving 50% inhibition of cell proliferation) were calculated by linear regression analysis. Toxicity of Compound 14-1 was also evaluated in bone marrow precursor cells by previously published procedure (Sommadossi, J.-P., et al., Biochem. Pharmacol., 44:1921-1925, 1992).
(§2) (A) Cell Proliferation Assay: Twenty-four hours prior to assay, cells (HFF or Daudi) were seeded in six-well plates at a concentration of 2.5×10^4 cells per well in MEM containing 10% FBS. On the day of the assay, drugs were diluted serially in MEM containing 10% FBS at increments of 1:5 covering a range from […]. For drugs that had to be solubilized in DMSO, control wells receive MEM containing 10% DMSO. The media from the wells was then aspirated, and 2 mL of each drug concentration was added to each well. The cells were incubated in a CO2 incubator at 37° C. for 72 h. At the end of this time, the media-drug solution was removed, and the cells were washed. Trypsin-EDTA (0.25%, 1 mL) was added to each well and incubated until the cells started to come off the plate. The cell-media mixture was then pipeted up and down vigorously to break up the cell suspension and 0.2 mL of the mixture added to 9.8 mL of Isoton III and the cells were counted using a Coulter Counter. Each sample was counted three times with two replicate wells per sample. The IC50 values were calculated using a computer program.

[3] = Neutral red uptake assay, stationary HFF cells; type: cell-based; conditions: human, read-out: Cytotoxicity (IC50), Neutral Red Uptake
Experimental: (B) Neutral Red Uptake Assay: Twenty-four hours prior to assay, HFF cells were plated into 96-well plates at a concentration of 2.5×10^4 cells/well. After 24 h, the media was aspirated, and […] of media containing drug was added to the first row of wells and then diluted serially 1:5 using the automated Cetus Liquid Handling System. The plates were then incubated in a Co2 incubator at 37° C. for 7 days. At this time the media/drug was removed, cells were washed, 200 μL/well of 0.01% neutral red in PBS was added, and the mixture was incubated for 1 h. The dye was removed, and the cells were washed using a Nunc Plate Washer. After the wash was removed, […] of 50% ethanol/1% aqueous acetic acid was added. The plates were placed on a rotating shaker for 15 min, and the optical densities were then read at 540 nm using a plate reader.
(§3) Data Analysis: Dose-response relationships were constructed by linearly regressing the percent inhibition of parameters derived in the preceding sections against log drug concentrations. Fifty-percent inhibitory (IC50) concentrations were calculated from the regression lines.

[4] = Cell proliferation assay, rapidly growing HFF cells; type: cell-based; conditions: human, rapidly growing human foreskin fibroblast (HFF) cells; for IC50 at 72 h: rapidly growing HFF cells, read-out: Cytotoxicity (IC50), HFF Cells
Experimental: as §1, §2

[5] = tested on: P3HR-1 strain of EBV; experiment: Viral capsid antigen (VCA) / EBV immunofluorescence assay in Daudi cells; type: cell-based, Epstein-Barr virus; conditions: for SI (Selectivity Index), Daudi Cells: IC50 (Daudi cells) divided by anti-EBV EC50; for SI (Selectivity Index), Neutral Red Uptake: IC50 (neutral red, stationary HFF) divided by anti-EBV EC50; for SI (Selectivity Index), HFF Cells: IC50 (rapidly growing HFF) divided by anti-EBV EC50; for EC50: human gammaherpesvirus 4, Daudi cells, read-out: Antiviral Activity (EC50), anti-EBV
Experimental: After virus adsorption, the cells were washed and pelleted, and the supernatant was discarded. The drugs to be tested were serially diluted in RPMI-1640 and added to the appropriate tubes. The cultures were incubated for 2 days in complete medium to allow viral gene expression. Following the 48 h incubation period, a number of cells of each sample were counted and washed in phosphate-buffered saline (PBS), and slides were prepared. The slides were dried overnight. The dried cells were fixed with acetone. A monoclonal antibody to viral capsid antigen (VCA) was then added to the cells, incubated for 30 min at 37° C., and washed in PBS. This was followed by a fluorescein-conjugated goat anti-mouse IgG antibody. The cells were counterstained with. Evans Blue. A total of 500 negative and fluorescence positive cells were counted. The total number of VCA positive cells in the cultures was calculated and EC50 values determined using Microsoft Excel Software.
as §3

[6] = molecular target: T2, adenosine deaminase from calf intestinal mucosa (Bos taurus, UniProt P56658); experiment: Adenosine deaminase assay (Example 17); type: biochemical; conditions: Lineweaver-Burk plots; with and without preincubation
T2 construct: against adenosine deaminase from calf intestinal mucosa; from tissue; host or cells: calf intestinal mucosa
Experimental: Inhibition of adenosine deaminase (ADA) by Compound 17-1 and Compound 17-2 (see FIG. 13 for chemical structures; note that structure 1 FIG. 13 is the same as that in figure except that it is written in an anti-conformation in the former) was investigated in vitro against adenosine deaminase from calf intestinal mucosa in a 50 mM phosphate buffer (pH=7.4) at 25° C., by spectro-photometrically monitoring the rate of hydrolysis of substrate adenosine at 265 nm. Stock solutions of the substrate, enzyme, and inhibitors were prepared using a 50 mM phosphate buffer (pH 7.4). The enzyme kinetics was followed by measuring the change in optical density (decrease in absorbance) per minute of the substrate adenosine. By keeping the concentration of the inhibitor constant, and by varying the substrate concentration, a set of kinetic data was obtained. Additional sets of data were generated using different concentrations of the inhibitor. […]
(a) pre-incubation of the enzyme with the inhibitor; here the enzyme (ADA 10 μL) and inhibitor were preincubated for 10 min in a calculated amount of phosphate buffer (50 mM, pH 7.5 ) at 25° C. and the reaction was initiated by the addition of substrate, adenosine, and (b) without preincubation; here the reaction was started by addition of ADA (10 μL) to a mixture of adenosine and inhibitor in the phosphate buffer at 25° C. […]

[7] = molecular target: T3, guanine deaminase (guanase) from rabbit liver (Oryctolagus cuniculus, UniProt G1T386); experiment: Guanine deaminase assay (Example 17); type: biochemical; conditions: Lineweaver-Burk plots
T3 construct: from tissue; host or cells: rabbit liver
Experimental: Stock solutions of the substrate, enzyme, and inhibitors were prepared using a 50 mM Tris-HCl buffer (pH 7.4). The enzyme kinetics was followed by measuring the change in optical density (decrease in absorbance) per minute of the substrate guanine. By keeping the concentration of the inhibitor constant, and by varying the substrate concentration, a set of kinetic data was obtained. Additional sets of data were generated using different concentrations of the inhibitor. The substrate concentration in each assay ranged 6-20 μM; a total of six different concentrations were employed. The inhibitor concentration used in each assay was 30 or 40 μM. The amount of enzyme used in each assay was 0.0076 unit. The Ki for inhibition assays was computed from Lineweaver-Burk plots. The Lineweaver-Burk plot (1/V vs 1/[S]), as well as the linear regression analysis of kinetic data, were performed using the program Quattro Pro (version 6.01) for Windows.™.

T1 sequence (P00573 whole entry): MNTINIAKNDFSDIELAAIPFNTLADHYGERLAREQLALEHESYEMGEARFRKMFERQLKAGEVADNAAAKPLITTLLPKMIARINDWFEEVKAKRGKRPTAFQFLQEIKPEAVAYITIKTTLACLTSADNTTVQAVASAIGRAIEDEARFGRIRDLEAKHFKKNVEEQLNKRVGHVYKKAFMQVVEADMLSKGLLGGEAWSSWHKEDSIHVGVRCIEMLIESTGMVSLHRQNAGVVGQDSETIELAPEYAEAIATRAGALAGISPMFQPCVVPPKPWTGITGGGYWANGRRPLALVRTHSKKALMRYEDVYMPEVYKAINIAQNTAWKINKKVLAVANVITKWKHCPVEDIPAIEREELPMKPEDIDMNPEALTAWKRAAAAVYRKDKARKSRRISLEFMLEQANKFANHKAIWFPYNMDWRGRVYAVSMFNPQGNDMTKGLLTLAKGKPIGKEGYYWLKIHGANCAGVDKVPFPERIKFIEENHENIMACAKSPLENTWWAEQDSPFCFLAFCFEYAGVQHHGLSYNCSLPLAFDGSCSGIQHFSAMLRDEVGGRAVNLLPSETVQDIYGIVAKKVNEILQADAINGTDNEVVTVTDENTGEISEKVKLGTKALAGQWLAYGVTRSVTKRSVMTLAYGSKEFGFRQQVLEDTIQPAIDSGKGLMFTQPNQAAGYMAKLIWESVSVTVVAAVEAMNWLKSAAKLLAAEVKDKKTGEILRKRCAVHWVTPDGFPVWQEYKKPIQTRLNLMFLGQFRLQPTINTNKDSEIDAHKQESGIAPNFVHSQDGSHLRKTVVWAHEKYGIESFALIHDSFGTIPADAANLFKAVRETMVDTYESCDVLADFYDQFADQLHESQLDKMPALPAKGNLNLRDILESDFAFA
T2 sequence (P56658 whole entry): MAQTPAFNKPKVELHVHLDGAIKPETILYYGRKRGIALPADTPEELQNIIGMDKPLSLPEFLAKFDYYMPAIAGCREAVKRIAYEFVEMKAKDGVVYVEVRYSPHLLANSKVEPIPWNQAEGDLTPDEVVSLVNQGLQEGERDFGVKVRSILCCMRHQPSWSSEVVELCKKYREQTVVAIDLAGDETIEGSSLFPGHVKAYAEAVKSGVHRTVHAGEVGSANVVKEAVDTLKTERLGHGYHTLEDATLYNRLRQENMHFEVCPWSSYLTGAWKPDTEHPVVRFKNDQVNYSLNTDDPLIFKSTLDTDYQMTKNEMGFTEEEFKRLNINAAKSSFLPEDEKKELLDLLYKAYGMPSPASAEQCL
T3 sequence (G1T386 1-454): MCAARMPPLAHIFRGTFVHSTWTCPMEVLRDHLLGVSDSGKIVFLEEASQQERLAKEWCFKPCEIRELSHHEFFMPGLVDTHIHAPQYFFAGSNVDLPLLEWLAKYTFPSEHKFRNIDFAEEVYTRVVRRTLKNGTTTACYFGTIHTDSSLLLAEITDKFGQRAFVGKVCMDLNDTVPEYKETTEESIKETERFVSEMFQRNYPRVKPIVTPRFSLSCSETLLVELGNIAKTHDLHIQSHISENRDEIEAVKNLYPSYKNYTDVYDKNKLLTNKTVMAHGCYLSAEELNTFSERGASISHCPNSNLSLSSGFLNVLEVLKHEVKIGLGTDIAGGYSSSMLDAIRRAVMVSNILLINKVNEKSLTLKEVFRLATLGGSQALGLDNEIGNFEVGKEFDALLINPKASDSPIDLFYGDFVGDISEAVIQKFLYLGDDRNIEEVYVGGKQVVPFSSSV

Row | SMILES | incorporation into RNA during transcription (substrate for T7 polymerase) ([1]; 42-mer DNA template) | inhibition of T7 RNA polymerase-catalyzed transcription ([1]; 42-mer and 37-mer DNA templates, 0.05-10 mM) | IC50 at 72 h [2] [µg/mL] | IC50 at 7 days [3] [µg/mL] | IC50 at 72 h [4] [µg/mL] | SI (Selectivity Index), Daudi Cells [5] | SI (Selectivity Index), Neutral Red Uptake [5] | SI (Selectivity Index), HFF Cells [5] | EC50 [5] [µg/mL] | melting point [°C] | CC50 at 72 h ([2]; Rapidly growing Daudi cells) [µg/mL] | CC50 at 72 h ([4]; Rapidly growing HFF cells) [µg/mL] | mode of inhibition of adenosine deaminase [6] | inhibition of guanine deaminase (guanase), mode [7]
1 | N=c1nc(N)nc(N)c2ncn([C@@H]3O[C@H](COP(=O)(O)OP(=O)(O)OP(=O)(O)O)[C@@H](O)[C@H]3O)c12 [Compound 15-2, 5′-triphosphate derivative of 4,6-diamino-8-imino-8H-1-β-D-ribofuranosylimidazo[4,5-e][1,3]diazepine] | not a substrate for T7 polymerase | inhibitor of T7 polymerase |  |  |  |  |  |  |  |  |  |  |  | 
2 | O=C1c2ncn(Cc3ccccc3)c2N(Cc2ccccc2)C(=O)CN1Cc1ccccc1 [Compound 18-1, 3,4,7-Tribenzyl-4,5,7,8-tetrahydro-6H-imidazo[4,5-e][1,4]diazepine-5,8-dione] |  |  | > 50 | > 100 | > 100 | >12 | >24 | >24 | 4.1 (≈ 9.39 µM) | 170 to 172 |  |  |  | 
3 | Nc1nc2c(ncn2COCCO)c(=O)[nH]1 [Aciclovir, reference compound] |  |  | > 50 | > 100 | > 100 | >62 | >125 | >125 | 0.8 (≈ 3.55 µM) |  | > 50 | > 100 |  | 
4 | O=C1NCC(=O)N(Cc2ccccc2)c2c1nc(Br)n2Cc1ccccc1 [Compound 18-2, 3,4-Dibenzyl-2-bromo-4,5,7,8-tetrahydro-6H-imidazo[4,5-e][1,4]diazepine-5,8-dione] |  |  | > 50 | > 100 | > 100 | >6 | >12 | >12 | 8.3 (≈ 19.5 µM) | 239 to 241 |  |  |  | 
5 | N=c1nc(N)c2ncn(COCCO)c2c(N)n1 [Compound 17-2] |  |  |  |  |  |  |  |  |  |  |  |  | competitive inhibitor; also recorded: reversible inhibitor | competitive inhibitor
